From patent US9801850B2, “Antibacterial agent” (OSAKA UNIVERSITY, priority 2009, dated 2017)

Columns and labels:
MRSA ATCC43300 = test: MIC, broth microdilution (Example 2, Table 6); type: cell-based, Staphylococcus aureus
Procedure: (§1) Methicillin-susceptible Staphylococcus aureus (MSSA) NCTC8325 and methicillin-resistant Staphylococcus aureus (MRSA) ATCC43300 were used as bacteria. The bacteria of each type were cultured using Mueller-Hinton Broth (MH-broth, Difco) as a medium. Then, the minimum inhibitory concentration (MIC) of each of the EGCG derivatives was measured by a broth microdilution method in accordance with the Clinical and Laboratory Standards Institute (CLSI) guidelines (hereinafter the same).
(§2) First, each of the EGCG derivatives was dissolved in 100% dimethyl sulfoxide (DMSO, Wako Pure Chemical Industries, Ltd.) so that the concentration thereof became 5120 μg/ml. The resultant solution was diluted with DMSO or sterile distilled water so as to prepare two-fold dilution series of antibacterial agent solutions. […] Each of these antibacterial agent solutions was dispensed to wells of a 96-well plate. The concentration of the EGCG derivative in the antibacterial agent solution dispensed to the wells was set to be 10 times as high as the final concentration. On the other hand, the bacteria were cultured in the MH-broth at 37° C. overnight, and the thus-obtained pre-culture solution was diluted with a new MH-broth so that the concentration thereof in the MH-broth became 10^−4 (10^4-fold dilution), thus preparing a bacterial culture solution of about 1×10^5 CFU/ml (CFU: Colony Forming Unit, the number of viable cells). The bacterial culture solution was further added to each well, and the mixture was cultured at 37° C. for 18 hours. The ratio (volume ratio) between the antibacterial agent solution and the bacterial culture solution added to each well was set to 1:9 (the antibacterial agent solution:the bacterial culture solution), and the volume of the mixture of them per well was set to 100 μl in total. The final concentration of the EGCG derivative in the mixture was set to 8 μg/ml to 512 μg/ml, and the number of viable cells in the mixture was set to about 1×10^5 CFU/ml. Then, after the completion of the culture, the MIC was determined. Also, the turbidity (OD600 nm) was measured using a plate reader so as to identify minor differences.
Each of the EGCG derivatives was dissolved in 100% DMSO so that the concentration thereof became 1280 μg/ml. The thus-obtained solutions were diluted with sterile distilled water, thus preparing antibacterial agent solutions.
As Comparative Example 2, the same procedures as in Example 2 were performed, except that unsubstituted EGCG was used as an antibacterial agent instead of the EGCG derivatives of Example 2. Furthermore, as a control, the same procedures as in Example 2 were performed, except that sterile distilled water was used instead of the antibacterial agent solutions containing the EGCG derivatives.

[1] = system: MRSA clinical isolate No. 10; test: MIC, broth microdilution (Example 2, Table 6); type: cell-based, Staphylococcus aureus
[2] = system: Bacillus cereus ATCC14579; test: Antibacterial spectrum MIC (Table 7); type: cell-based
Procedure: as §1, §2
(§3) Regarding the respective type strains shown in Tables 7 and 8 below, the MIC measurement was performed using the antibacterial agent solutions of Example 2 in the same manner as described in Section (2) of Example 1, except for the following. The antibacterial agent solutions were prepared by dissolving the EGCG derivatives of Example 2 in 100% DMSO and then diluting the resultant mixtures with sterile distilled water. The respective strains were derived from ATCC or NCTC. As Moraxella catarrhalis and Aspergillus fumigatus, clinical isolates thereof without an acquired resistance mechanism were used. For nutrient-rich bacteria, namely, Streptococcus pneumoniae ATCC49619, Streptococcus pyogenes ATCC19615, Streptococcus agalactiae ATCC13813, Moraxella catarrhalis, and Haemophilis influenzae ATCC49766, Strepto Haemo supplement (Eiken Chemical Co., Ltd.) was added to media for culturing them. The MIC measurement with respect to fungi was carried out by a broth microdilution method using a RPMI1640/MOPS (pH 7.0) medium in accordance with CLSI guidelines. About 2×10^3 cells/ml of fungi were inoculated to the medium. After the culture at 35° C. for 24 to 48 hours, the MIC was determined. Also, regarding the antibacterial agent solution of Comparative Example 2, the MIC was measured in the same manner.

[3] = system: Bacillus subtilus ATCC6051; test: Antibacterial spectrum MIC (Table 7); type: cell-based
Procedure: as §1, §2, §3

[4] = system: Neisseria gonorrhoeae ATCC49226; test: Antibacterial spectrum MIC (Table 7); type: cell-based
Procedure: as §1, §2, §3

Neisseria meningitidis = test: Antibacterial spectrum MIC (Table 7); type: cell-based
Procedure: as §1, §2, §3

[5] = system: Stenotrophomonas maltophilia ATCC13637; test: Antibacterial spectrum MIC (Table 7); type: cell-based
Procedure: as §1, §2, §3

[6] = system: Streptococcus agalactiae ATCC13813; test: Antibacterial spectrum MIC (Table 7); type: cell-based; conditions: Strepto Haemo supplement
Procedure: as §1, §2, §3

[7] = system: Staphylococcus epidermis ATCC14990; test: Antibacterial spectrum MIC (Table 7); type: cell-based
Procedure: as §1, §2, §3

[8] = system: Klebsiella oxytoca ATCC8724; test: Antibacterial spectrum MIC (Table 7); type: cell-based
Procedure: as §1, §2, §3

[9] = system: Haemophilis influenzae ATCC49766; test: Antibacterial spectrum MIC (Table 7); type: cell-based; conditions: Strepto Haemo supplement
Procedure: as §1, §2, §3

[10] = system: Serratia marcescens ATCC13880; test: Antibacterial spectrum MIC (Table 7); type: cell-based
Procedure: as §1, §2, §3

[11] = system: Streptococcus pneumoniae ATCC49619; test: Antibacterial spectrum MIC (Table 7); type: cell-based; conditions: Strepto Haemo supplement
Procedure: as §1, §2, §3

[12] = system: Staphylococcus aureus NCTC8325; test: Antibacterial spectrum MIC (Table 7); type: cell-based
Procedure: as §1, §2, §3

[13] = system: Enterococcus faecalis ATCC29212; test: Antibacterial spectrum MIC (Table 7); type: cell-based
Procedure: as §1, §2, §3

Moraxella catarrhalis = test: Antibacterial spectrum MIC (Table 7); type: cell-based; conditions: Moraxella catarrhalis clinical isolate, Strepto Haemo supplement
Procedure: as §1, §2, §3

[14] = system: Yersinia enterocolitica ATCC9610; test: Antibacterial spectrum MIC (Table 7); type: cell-based
Procedure: as §1, §2, §3

[15] = system: Staphylococcus aureus ATCC43300 (MRSA); test: Antibacterial spectrum MIC (Table 7); type: cell-based
Procedure: as §1, §2, §3

[16] = system: Enterobacter cloacae ATCC13047; test: Antibacterial spectrum MIC (Table 7); type: cell-based
Procedure: as §1, §2, §3

[17] = system: Escherichia coli ATCC25922; test: Antibacterial spectrum MIC (Table 7); type: cell-based
Procedure: as §1, §2, §3

[18] = system: Streptococcus pyogenes ATCC19615; test: Antibacterial spectrum MIC (Table 7); type: cell-based; conditions: Strepto Haemo supplement
Procedure: as §1, §2, §3

[19] = system: Micrococcus lutus ATCC9341; test: Antibacterial spectrum MIC (Table 7); type: cell-based
Procedure: as §1, §2, §3

[20] = system: Enterobacter aerogenes ATCC13048; test: Antibacterial spectrum MIC (Table 7); type: cell-based
Procedure: as §1, §2, §3

## EGCG-palmitate [EGCG-C16]
MRSA ATCC43300
  MIC: 16 µg/mL
[1]
  MIC: 16 µg/mL
[2]
  MIC: 16 µg/mL
[3]
  MIC: 16 µg/mL
[4]
  MIC: 16 µg/mL
Neisseria meningitidis
  MIC: 16 µg/mL
[5]
  MIC: 32 µg/mL
[6]
  MIC: >64 µg/mL
[7]; Staphylococcus epidermids ATCC14990, comparison among EGCG derivatives
  antibacterial effect: strongest antibacterial effect
[7]; Staphylococcus epidermis ATCC14990
  MIC: 32 µg/mL
[8]
  MIC: 64 µg/mL
[9]
  MIC: 16 µg/mL
[10]
  MIC: 64 µg/mL
[11]
  MIC: 16 µg/mL
[12]
  MIC: 16 µg/mL
[13]
  MIC: 16 µg/mL
Moraxella catarrhalis
  MIC: 64 µg/mL
[14]
  MIC: 32 µg/mL
[15]
  MIC: 32 µg/mL
[16]
  MIC: 64 µg/mL
[17]
  MIC: 64 µg/mL
[18]
  MIC: 64 µg/mL
[19]
  MIC: 64 µg/mL
[20]
  MIC: 32 µg/mL
